One experiment has as its system IL-8. Put plainly: Glucocorticoid transrepression assay, IL-8 inhibition (TR). The format is cell-based. The conditions noted are these: Homo sapiens. Put shortly:
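Human lung epithelial NCI-H292 cells at 75-90% confluence were pretreated with steroid or antagonist for 1 h at 37 °C. TNFα was then added at 10 ng/ml final and cells were incubated overnight, with 10 μM dexamethasone as the maximum-inhibition control. Secreted IL-6 and IL-8 were measured in the medium by MSD multi-spot immunoassay.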

Experiment [1] relates to human glucocorticoid response element coupled with a luciferase reporter gene. Put plainly: GRE-transactivation assay (HeLa-GRE luciferase, TA). The format is cell-based. The method, then: HeLa cells were stably transfected with a human glucocorticoid response element coupled with a luciferase reporter gene. Cells were plated in 96 well Packard View Plates (black sides/ clear bottom) at 20 K cells/0.2 ml complete medium. Plates were incubated overnight at 37°/5% CO2. Medium was aspirated and replaced with 150 μl medium containing 5% charcoal-treated FBS and cells incubated overnight again. Test compounds were prepared in 5% charcoal-treated FBS medium. Medium was aspirated from plates and replaced with 100 μl of test compounds or controls. Plates were returned to incubator for exactly 24 hours. To measure induced luciferase, 100 μl of Steady-Glo luciferase assay substrate (Promega) was added to each well. Plates were sealed and mixed on a plate shaker for 5 minutes. Plate bottom opaque seals were added and the plates were allowed to stand for 60 minutes. Luminescence was measured on a Top-Count instrument (Perkin-Elmer).

For the next experiment, the system named is IL-6. The experiment in a line: Glucocorticoid transrepression assay, IL-6 inhibition (TR). The settings on record: Homo sapiens; Table 4; NCl-H292 cells, TNFα 10 ng/ml. The format is cell-based. The method, then: Human Lung epithelial cell line NCl-H292 cells were dissociated from stock flask using 0.05% trypsin/0.53 mM EDTA. Cells were suspended in complete medium and counted. Cells were plated in 96-well flat-bottom plates at 20K cells /well in 0.2 ml/well. Plates were incubated for 24-48 hours until cells were between 75-90% confluent. Medium was aspirated and replaced with medium containing various concentrations of steroids or antagonists. After 1 hour incubation at 37°, TNFα (10 ng/ml final concentration in 0.2 ml) was added and the cells incubated overnight. Control wells with and without TNF were included on each plate, as well as wells with TNF in addition to a maximum (10 μM) concentration of dexamethasone. The cell culture medium was sampled and IL-6 and IL-8 cytokine production was measured using the MSD Multi-Spot immunoassay.

For experiment [2] the following is noted: symptoms associated with chronic nasal congestion; cited from earlier work.
The mark [3] stands for this setting: Table 1, NCl-H292 cells, TNFα 10 ng/ml.
Where [4] appears, read: Table 1, NCl-H292 cells, TNFα 10 ng/ml, read-out: IL-8 inhibition (TR) Emax % inhibition.
Where [5] appears, read: HeLa cells, 24 hours, luciferase, read-out: EMAX value, GRE-transactivation assay.

Read-outs that look alike come from different tables or passages of the source. A value given as a limit tells only on which side of the number the result lay.

Usually IC50 stands for the midpoint of a concentration-inhibition curve. A high value points to lower potency.

In the experiment on IL-8 (setting [3]), `CC12Cc3cnn(-c4ccc(F)cc4)c3C=C1CCC1C2[C@@H](O)CC2(C)C1CC[C@]2(O)C(=O)CSc1nc2ccccc2s1` (stereo partly shown) [Compound 1] had an IC50 of 0.06 to 20 nM. For the same compound, the Emax is over 80% in the experiment with IL-8 (setting [4]) and 71% in experiment [1] (setting [5]).

As for `CC12Cc3cnn(-c4ccc(F)cc4)c3C=C1CCC1C2[C@@H](O)CC2(C)C1CC[C@]2(O)C(=O)Cn1cc(-c2ccccc2)cn1` (stereo partly shown) [Compound 1], in experiment [1] (setting [5]), the Emax came out at 69%.

As for `C[C@]12Cc3cnn(-c4ccc(F)cc4)c3C=C1CCC1C2[C@@H](O)C[C@@]2(C)C1CC[C@]2(OC(=O)c1ccco1)C(=O)SCc1ccc(-c2ccccn2)cc1` (stereo partly shown) [Compound 1], in the experiment on IL-6, the Emax is over 80% and the IC50 is 0.06 to 20 nM.

In the experiment on IL-6, `C[C@]12Cc3cnn(-c4ccc(F)cc4)c3C=C1CCC1C2[C@@H](O)C[C@@]2(C)C1CC[C@]2(OC(=O)c1ccco1)C(=O)SCc1ccc2ccccc2n1` (stereo partly shown) [Compound 2] registered an Emax of over 80% and a half-inhibitory concentration (IC50) of 0.06 to 20 nM.

Take `C[C@]12Cc3cnn(-c4ccc(F)cc4)c3C=C1CCC1C2[C@@H](O)C[C@@]2(C)C1CC[C@]2(OC(=O)c1ccco1)C(=O)SCc1nc2ccccc2o1` (stereo partly shown) [Compound 3]: in the experiment on IL-6, the Emax was over 80% and the IC50 is 0.06 to 20 nM.

As for `C[C@]12Cc3cnoc3C=C1CCC1C2[C@@H](O)C[C@@]2(C)C1CC[C@]2(O)C(=O)Nc1nc2cccnc2s1` (stereo partly shown) [Compound 4-1], the Emax in the experiment with IL-8 (text value for compound 4-1, only a % value printed, read-out: IL-8 inhibition(TR) IC50/Emax(nM, % inhibition)) stood at 23%; in experiment [1] (text value for compound 4-1, only a % value printed, read-out: H Hela-GRE luciferase(TA) IC50/Emax(nM, % inhibition)), 0%.

In the experiment on IL-6, `C[C@]12Cc3cnn(-c4ccc(F)cc4)c3C=C1CCC1C2[C@@H](O)C[C@@]2(C)C1CC[C@]2(OC(=O)c1ccco1)C(=O)SCc1cccc(N2CCCC2)n1` (stereo partly shown) [Compound 4] had an Emax of over 80% and an IC50 of 0.06 to 20 nM.

The compound `CC12Cc3cnn(CCC#N)c3C=C1CCC1C2[C@@H](O)CC2(C)C1CC[C@]2(O)C(=O)CSc1ccccn1` (stereo partly shown) [Compound 60] yielded an IC50 with IL-8 (setting [3]) of 66 to 400 nM. Besides, the Emax was under 60% in the experiment on IL-8 (setting [4]) and 15% in experiment [1] (setting [5]).

`CC12Cc3cnn(C4CCOCC4)c3C=C1CCC1C2[C@@H](O)CC2(C)C1CC[C@]2(O)C(=O)CSc1nc2cccnc2s1` (stereo partly shown) [Compound 71]: the concentration for half-maximal inhibition (IC50) in the experiment with IL-8 (setting [3]) was 66 to 400 nM. The Emax was over 80% in the experiment with IL-8 (setting [4]) and 85% in experiment [1] (setting [5]).

`CC12Cc3cnn(C4CCOCC4)c3C=C1CCC1C2[C@@H](O)CC2(C)C1CC[C@]2(O)C(=O)CSc1ccc2ccccc2n1` (stereo partly shown) [Compound 74] gave an IC50 in the experiment with IL-8 (setting [3]) of 66 to 400 nM. The Emax in the experiment on IL-8 (setting [4]) is 70 to 80%; in experiment [1] (setting [5]) it was 56%.

On to `Cn1c(OCC(=O)[C@@]2(O)CCC3C4CCC5=Cc6c(cnn6-c6ccccc6)CC5(C)C4[C@@H](O)CC32C)nc2ccccc21` (stereo partly shown) [Compound 119], for which, in the experiment on IL-8 (setting [3]), the IC50 was in the range of 0.06 to 20 nM. In addition, in the experiment on IL-8 (setting [4]), the Emax was over 80%.

As for `CC12Cc3cnn(-c4ccccc4)c3C=C1CCC1C2[C@@H](O)CC2(C)C1CC[C@]2(O)C(=O)COc1nc2ccccc2s1` (stereo partly shown) [Compound 120], the IC50 with IL-8 (setting [3]) lay in the range of 0.06 to 20 nM. Besides, the Emax in the experiment with IL-8 (setting [4]) is over 80%.

Regarding `CC12Cc3cn(-c4ccccc4)nc3C=C1CCC1C2[C@@H](O)CC2(C)C1CC[C@]2(O)C(=O)COc1nc2ccccc2s1` (stereo partly shown) [Compound 121], the Emax with IL-8 (setting [4]) was under 60%.

`CC12Cc3cnn(-c4ccccc4)c3C=C1CCC1C2[C@@H](O)CC2(C)C1CC[C@]2(O)C(=O)COc1ccccn1` (stereo partly shown) [Compound 122]: the concentration for half-maximal inhibition (IC50) with IL-8 (setting [3]) was 0.06 to 20 nM. Besides, the Emax in the experiment with IL-8 (setting [4]) was over 80%.

`Cn1c(SCC(=O)[C@@]2(O)CCC3C4CCC5=Cc6c(cnn6-c6ccc(F)cc6)CC5(C)C4[C@@H](O)CC32C)nc2cc(S(N)(=O)=O)ccc21` (stereo partly shown) [Compound 123] had an IC50 in the experiment with IL-8 (setting [3]) of 0.06 to 20 nM. Also, in the experiment with IL-8 (setting [4]), the Emax is over 80%.

The compound `CC12Cc3cnn(C4CCCCC4)c3C=C1CCC1C2[C@@H](O)CC2(C)C1CC[C@]2(O)C(=O)CSc1ncccn1` (stereo partly shown) [Compound 126] came in with an IC50 in the experiment on IL-8 (setting [3]) of 0.06 to 20 nM. Moreover, in the experiment on IL-8 (setting [4]), the Emax was over 80%.

`Cc1nc(SCC(=O)[C@@]2(O)CCC3C4CCC5=Cc6c(cnn6C6CCCCC6)CC5(C)C4[C@@H](O)CC32C)sc1C` (stereo partly shown) [Compound 130] gave a half-maximal inhibitory concentration (IC50) in the experiment with IL-8 (setting [3]) of 0.06 to 20 nM. Moreover, the Emax with IL-8 (setting [4]) was over 80%.

`Cc1ccnc(SCC(=O)[C@@]2(O)CCC3C4CCC5=Cc6c(cnn6C6CCCCC6)CC5(C)C4[C@@H](O)CC32C)n1` (stereo partly shown) [Compound 131]: the IC50 with IL-8 (setting [3]) lay within 0.06 to 20 nM. Besides, the values for the Emax (with IL-8 (setting [4]); in experiment [1] (setting [5])) were over 80% and 83%, respectively.

Turning to `CC12Cc3cnn(C4CCCCC4)c3C=C1CCC1C2[C@@H](O)CC2(C)C1CC[C@]2(O)C(=O)CSc1nc(-c2ccccc2)cs1` (stereo partly shown) [Compound 133], the IC50 with IL-8 (setting [3]) was 21 to 65 nM. Moreover, the Emax in the experiment with IL-8 (setting [4]) was over 80%.

In the case of `Oc1cccc(Nc2ncc(F)c(Nc3cccc(O)c3)n2)c1` [Compound R112], in experiment [2], the “absolute difference over placebo” value was 9%, the “improvement from baseline measurements (prior to drug initiation)” value is “up to 38%” and the “relative improvement over placebo” value was “greater than 20%”.

For `C[C@@H]1C[C@H]2[C@@H]3CCC4=CC(=O)C=C[C@]4(C)[C@@]3(F)[C@@H](O)C[C@]2(C)[C@@]1(O)C(=O)CO` [dexamethasone, reference compound], the Emax in experiment [1] (setting [5]) came to 100%.

For `CCC(=O)O[C@]1(C(=O)SCF)[C@H](C)C[C@H]2[C@@H]3C[C@H](F)C4=CC(=O)C=C[C@]4(C)[C@@]3(F)[C@@H](O)C[C@@]21C` [fluticasone propionate, reference compound], the Emax in experiment [1] (setting [5]) worked out at 99%.

The values above are taken from patent publication US20120171126A1, “NOVEL [3,2-c] HETEROARYL STEROIDS AS GLUCOCORTICOID RECEPTOR AGONISTS COMPOSITIONS AND USES THEREOF” (priority 2009, published 2012).
